# What was measured:
# [1] = system: mitochondrial unfolded protein response (UPR^mt); assay: UPR^mt GFP reporter worms (hsp-6::GFP); format: in vivo, C. elegans; conditions: Day 1 adults
# Protocol: Treatments with antibiotics (carbenicillin, doxycycline, and chloramphenicol (all Sigma)) were performed with heat-killed bacteria (Wood et al., 2004, Nature 430, 686). Carbenicillin, doxycycline, and chloramphenicol were added at the indicated concentrations. Animals were exposed to antibiotics from eggs to L4 larval stage and then shifted on plates seeded with live OP50 bacteria. GFP expression and quantification were carried out according to the protocol previously described (Durieux et al, 2011, Cell 144, 79). Briefly, GFP was monitored in Day 1 adults. Fluorimetric assays were performed using a Victor X4 multilabel plate reader (Perkin-Elmer Life Science). Eighty roller worms were picked at random (20 worms per well of a black-walled 96-well plate) and each well was read four times and averaged. Each experiment was repeated at least twice. For picture acquisition, animals were mounted on 2% agarose pads in a droplet of 10 mM tetramisole (Sigma) and examined using a Zeiss Axioplan-2 microscope (Carl Zeiss MicroImaging, Thornwood, N.Y., USA) equipped for both DIC and epifluorescence. Images were obtained using a Coolsnap ES^2 camera.
# C. elegans [2] = assay: Worm lifespan analysis; format: in vivo; conditions: antibiotic from eggs to L4 larval stage, heat-killed bacteria; 20° C
# Protocol: Lifespan tests were performed as described (Mouchiroud et al., 2011, Aging Cell 10, 39). Briefly, 60-100 animals were used per conditions and scored every other day. All lifespan experiments were performed at 20° C. […] Treatments with antibiotics (carbenicillin, doxycycline, and chloramphenicol (all Sigma)) were performed with heat-killed bacteria (Wood et al., 2004, Nature 430, 686). Carbenicillin, doxycycline, and chloramphenicol were added at the indicated concentrations. Animals were exposed to antibiotics from eggs to L4 larval stage and then shifted on plates seeded with live OP50 bacteria.
# [3] = system: Hepa1-6 mouse liver cells; assay: Oxygen consumption in Hepa1-6 cells (Seahorse XF24); format: cell-based; conditions: 48 h incubation, normalized for protein content
# Protocol: (§1) Hepa1-6 mouse liver cells were maintained in DMEM medium containing 4.5 g/l glucose and 10% fetal calf serum. Hepa1-6 cells were incubated for 48 h with doxycycline or chloramphenicol (both Sigma) in medium containing 1 g/l glucose, with 1% (v/v) oleate-BSA (Sigma) supplementation, and without any other antibiotics. Oxygen consumption in Hepa1-6 cells was measured using the Seahorse XF24 equipment (Watanabe et al., 2006, Nature 439, 484), and normalized for protein content. ATP content was measured using CellTiter-Glo (Promega), according to the manufacturer's protocol.
# C. elegans [4] = assay: Worm respiration assay (Seahorse XF24); format: in vivo; conditions: worms treated with antibiotic
# Protocol: Treatments with antibiotics (carbenicillin, doxycycline, and chloramphenicol (all Sigma)) were performed with heat-killed bacteria (Wood et al., 2004, Nature 430, 686). Carbenicillin, doxycycline, and chloramphenicol were added at the indicated concentrations. Animals were exposed to antibiotics from eggs to L4 larval stage and then shifted on plates seeded with live OP50 bacteria. Oxygen consumption was measured using the Seahorse XF24 equipment (Seahorse Bioscience Inc., North Billerica, Mass.). Typically, 200 animals per conditions were recovered from NGM plates with M9 medium, washed three times in 2 mL M9 to eliminate residual bacteria, and resuspended in 500 μL M9 medium. Worms were transferred in 24-well standard Seahorse plates (#100777-004) (50 worms per well) and oxygen consumption was measured 6 times. Respiration rates were normalized to the number of worms in each individual well.
# C57BL/6N mice = assay: Mouse indirect calorimetry (CLAMS); format: in vivo; conditions: C57BL/6 mice, chow containing doxycycline for 10 days, data not shown
# Protocol: Wild type C57BL/6N mice were treated for 10 days with 50 mpkd doxycycline (Sigma) in food admix. Oxygen consumption (VO2), respiratory exchange ratios (RER), and activity were monitored by indirect calorimetry using the comprehensive laboratory animal monitoring system (CLAMS) (Columbus Instruments, Columbus, Ohio, USA).
# [5] = system: Hepa1-6 mouse liver cells; assay: ATP content (CellTiter-Glo) in Hepa1-6 cells; format: cell-based; conditions: data not shown
# Protocol: as §1
activity (C57BL/6N mice),food intake (C57BL/6N mice),Compound,UPR^mt induction in C. elegans [1],lifespan of C. elegans (C. elegans [2]),respiration (oxygen consumption) in Hepa1-6 cells [3],oxygen consumption (respiration) of C. elegans (C. elegans [4]),body weight (C57BL/6N mice),cell viability as measured by ATP levels [5]
–,–,O=C(N[C@H](CO)[C@H](O)c1ccc([N+](=O)[O-])cc1)C(Cl)Cl [chloramphenicol],induced UPR^mt,extended lifespan,decreased respiration,decreased respiration,–,–
without changes,without changes,C[C@H]1c2cccc(O)c2C(=O)C2=C(O)[C@]3(O)C(=O)C(C(N)=O)=C(O)[C@@H](N(C)C)[C@@H]3[C@@H](O)[C@@H]21 [doxycycline],–,–,–,–,without changes,without affecting cell viability
